Read-outs that look alike come from different tables or passages of the source.
Conditions: for Stabilization of chlorine dioxide by the excipient (in words): proprietary brimonidine composition; for Stabilized Chlorine Dioxide Concentration: ingredient added to proprietary brimonidine composition
Experimental: Each of the excipients was added, in the amounts shown, to a proprietary composition comprising brimonidine as a therapeutically active agent.

| Structure (SMILES) | Stabilization of chlorine dioxide by the excipient (in words) | Stabilized Chlorine Dioxide Concentration (0 Days) | Stabilized Chlorine Dioxide Concentration (7 Days) | Stabilized Chlorine Dioxide Concentration (14 Days) |
| --- | --- | --- | --- | --- |
| NCCN [Ethylene diamine] | do not stabilize |  |  |  |
| O=C([O-])/C(O)=C(\O)C(=O)[O-].[Na+].[Na+] [Sodium Dihydroxyfurmarate] |  | 37 ppm | 13 ppm | 0 ppm |
| O=C(O)CN(CCN(CC(=O)O)CC(=O)O)CC(=O)O [EDTA] | do not stabilize | 44 ppm | 2 ppm | 0 ppm |
| CC(=O)C(=O)[O-].[Na+] [Sodium Pyruvate] | similarly ineffective |  |  |  |
| O=C([O-])C(=O)[O-].[Na+].[Na+] [Sodium Oxalate] | similarly ineffective | 39 ppm | 38 ppm | 35 ppm |
| CC(O)C(=O)[O-].[Na+] (stereo not shown) [Sodium Lactate] |  | 45 ppm | 40 ppm | 37 ppm |
| O=C[O-].[Na+] [Sodium Formate] |  | 42 ppm | 40 ppm | 36 ppm |

Reference: patent US8691802B2, “Stabilized compositions comprising a therapeutically active agent and an oxidizing preservative” (Allergan, Inc., priority 2005, dated 2014)
